Measured values from patent US20250129103A1, “METHODS FOR TREATMENT OF CANCER” (Frontier Medicines Corporation, priority 2022, published 2025).

molecular target: KRAS G12C (GMPPNP-loaded) and cRAF (Ras-binding domain) interaction (Homo sapiens (Human), UniProt P01116, C118S/C51S/C80L/G12C); assay: Inhibition of KRAS G12C and cRAF binding (AlphaScreen); conditions: KRAS G12C loaded with GMPPNP, cRaf RBD, 2 hours preincubation; read-out: Raf-1 RBD K-Ras IC50
Protocol: Compounds were diluted in 100% DMSO and each compound concentration was spotted at 200 nl/well onto low volume, white 384 well plates. […] KRAS G12C was preloaded with the GTP analogue Guanosine 5′-[β,γ-imido]triphosphate (GMPPNP). The KRAS G12C was diluted in 25 mM Hepes, pH 7.4, 150 mM NaCl, 5 mM MgCl2, 0.01% TritonX-100 and 10 μM GMPPNP and added at 10 ul/well to compound-spotted plates resulting in a DMSO concentration of 2%. Plates were incubated for 2 hours. A mixture of RBD and the AlphaScreen streptavidin donor and glutathione acceptor beads diluted in 25 mM Hepes, pH 7.4, 150 mM NaCl, 5 mM MgCl2, 0.01% TritonX-100 and 2% DMSO was then added at 10 ul/well and incubated for 60-90 minutes before the samples were read for emission at 570 nm after excitation of the donor beads at 680 nm. All incubations were performed at room temperature. The final top compound concentration was 50 μM with 1:3 titrations for 10-point dose response curves. […] IC50S were determined using nonlinear regression fit of [inhibitor] vs. response (4 parameters). […]

KRAS G12C (GMPPNP-loaded) and cRAF (Ras-binding domain) interaction, sequence (P01116 other isoform, or with tags, fused parts or gaps G12C/C51S/C80L/C118S): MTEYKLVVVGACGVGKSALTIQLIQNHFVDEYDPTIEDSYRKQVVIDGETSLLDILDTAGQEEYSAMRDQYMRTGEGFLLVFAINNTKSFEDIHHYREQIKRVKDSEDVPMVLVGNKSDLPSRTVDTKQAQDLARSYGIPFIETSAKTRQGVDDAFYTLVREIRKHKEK

| Compound | IC50 [nM] |
| --- | --- |
| N#CC[C@H]1CN(c2nc(OC[C@@]34CCCN3C[C@H](F)C4)nc3c(F)c(-c4cccc(F)c4C4CC4)ncc23)CCN1C(=O)/C=C/CN1C2CCC1COC2 [Compound 269] | < 10 |
| CC(C)c1noc(/C=C/C(=O)N2CCN(c3nc(OC[C@@]45CCCN4C[C@H](F)C5)nc4c(F)c(-c5cccc6ccc(F)c(Cl)c56)ncc34)C[C@@H]2CC#N)n1 [Compound 132] | 10 to 100 |
| N#CC[C@H]1CN(c2nc(OCC34CCCN3CCC4)nc3c2CCN(c2cccc4cccc(Cl)c24)C3)CCN1C(=O)/C=C/CN1CCC(F)(F)C1 [Compound 176] | 10 to 100 |
| N#CC[C@H]1CN(c2nc(OCC34CCCN3CCC4)nc3c2CCN(c2cccc4cccc(Cl)c24)C3)CCN1C(=O)/C=C/CN1C[C@H]2C[C@@H]1CO2 [Compound 63] | < 10 |
| CC(C)c1noc(/C=C/C(=O)N2CCN(c3nc(OCC45CCCN4CCC5)nc4c3CCN(c3ccccc3C(F)F)C4)C[C@@H]2CC#N)n1 [Compound 144] | > 500 |
| C=C(C)c1c(Cl)cccc1-c1ncc2c(N3CCN(C(=O)/C=C/CN4C5CCC4COC5)[C@@H](CC#N)C3)nc(OC[C@@]34CCCN3C[C@H](F)C4)nc2c1F [Compound 326] | < 10 |
| N#CC[C@H]1CN(c2nc(OCC34CCCN3CCC4)nc3c2CCN(c2cccc4cccc(Cl)c24)C3)CCN1C(=O)/C=C/CN1CC2CCC(C1)O2 [Compound 167] | < 10 |
| Cc1c(F)ccc2c(-c3ncc4c(N5CCN(C(=O)/C=C/CN6CC7CC(C6)O7)[C@@H](CC#N)C5)nc(OC[C@@]56CCCN5C[C@H](F)C6)nc4c3F)cccc12 [Compound 253] | > 500 |
| Cn1cnc(/C=C/C(=O)N2CCN(c3nc(OC[C@@]45CCCN4C[C@H](F)C5)nc4c3CCN(c3cccc5cccc(Cl)c35)C4)C[C@@H]2CC#N)n1 [Compound 43] | > 500 |
| C[C@H](F)c1noc(/C=C/C(=O)N2CCN(c3nc(OC[C@@]45CCCN4C[C@H](F)C5)nc4c(F)c(-c5cccc6cccc(Cl)c56)ncc34)C[C@@H]2CC#N)n1 [Compound 137] | 10 to 100 |
| CC(C)c1noc(/C=C/C(=O)N2CCN(c3nc(OC[C@@]45CCCN4C[C@H](F)C5)nc4c(F)c(-c5nc(N)cc6cccc(F)c56)ncc34)C[C@@H]2CC#N)n1 [Compound 134] | 10 to 100 |
| CC(C)c1noc(/C=C/C(=O)N2CCN(c3nc(OC[C@@]45CCCN4C[C@H](F)C5)nc4c(F)c(-c5cccc6cccc(Cl)c56)ncc34)C[C@@H]2CC#N)n1 [Compound 121] | 100 to 500 |
| CC1(/C=C/C(=O)N2CCN(c3nc(OCC45CCCN4CCC5)nc4c3CCN(c3cccc5cccc(Cl)c35)C4)C[C@@H]2CC#N)COC1 [Compound 116] | > 500 |
| CC(C)c1noc(/C=C/C(=O)N2CCN(c3nc(OC[C@]45CCCN4C[C@H](F)C5)nc4c(F)c(-c5cccc6ccc(F)c(Cl)c56)ncc34)C[C@@H]2CC#N)n1 [Compound 133] | 10 to 100 |
| N#CC[C@H]1CN(c2nc(OC[C@@]34CCCN3C[C@H](F)C4)nc3c(F)c(-c4nc(N)cc5cccc(Cl)c45)ncc23)CCN1C(=O)/C=C/CN1CCOCC1 [Compound 59] | < 10 |
| N#CC[C@H]1CN(c2nc(OCC34CCCN3CCC4)nc3c2CCN(c2cccc4cccc(Cl)c24)C3)CCN1C(=O)/C=C/CN1CCOC2CC21 (stereo partly drawn) [Compound 164] | 10 to 100 |
| N#CC[C@H]1CN(c2nc(OCC34CCCN3CCC4)nc3c2CCN(c2cccc4cccc(Cl)c24)C3)CCN1C(=O)/C=C/CN1CC(F)(F)C1 [Compound 177] | 10 to 100 |
| N#CC[C@H]1CN(c2nc(OC[C@@]34CCCN3C[C@H](F)C4)nc3c(F)c(-c4cccc(Cl)c4C4CCC4)ncc23)CCN1C(=O)/C=C/CN1[C@@H]2CC[C@H]1COC2 [Compound 282] | 10 to 100 |
| N#CC[C@H]1CN(c2nc(OC[C@@]34CCCN3C[C@H](F)C4)nc3c(F)c(-c4ccc(F)c(F)c4C4CC4)ncc23)CCN1C(=O)/C=C/CN1[C@@H]2CC[C@H]1COC2 [Compound 272] | 10 to 100 |
| CC(F)(F)c1noc(/C=C/C(=O)N2CCN(c3nc(OCC45CCCN4CCC5)nc4c3CCN(c3cccc5cccc(Cl)c35)C4)C[C@@H]2CC#N)n1 [Compound 41] | 10 to 100 |
| N#CC[C@H]1CN(c2nc(OCC34CCCN3CCC4)nc3c2CCN(c2cccc4cccc(Cl)c24)C3)CCN1C(=O)/C=C/CCN1CCOCC1 [Compound 153] | 10 to 100 |
| N#CC[C@H]1CN(c2nc(OCC34CCCN3CCC4)nc3c2CCN(c2cccc4cccc(Cl)c24)C3)CCN1C(=O)/C=C/CN1C2COCC1C2 [Compound 199] | < 10 |

The next lines start with the values.

| IC50 [nM] | Compound |
| --- | --- |
| < 10 | N#CC[C@H]1CN(c2nc(OCC34CCCN3CCC4)nc3c2CCN(c2cccc4cccc(Cl)c24)C3)CCN1C(=O)/C=C/CN1CC2CC2C1 (stereo partly drawn) [Compound 204] |
| 10 to 100 | C[C@@H]1CN(C/C=C/C(=O)N2CCN(c3nc(OCC45CCCN4CCC5)nc4c3CCN(c3cccc5cccc(Cl)c35)C4)C[C@@H]2CC#N)C[C@H](C)O1 [Compound 196] |
| < 10 | N#CC[C@H]1CN(c2nc(OC[C@@]34CCCN3C[C@H](F)C4)nc3c(F)c(-c4cccc5cccc(Cl)c45)ncc23)CCN1C(=O)/C=C/CN1CC[C@H](OC(F)F)C1 [Compound 303] |
| < 10 | C[C@H]1CN(C/C=C/C(=O)N2CCN(c3nc(OCC45CCCN4CCC5)nc4c3CCN(c3cccc5cccc(Cl)c35)C4)C[C@@H]2CC#N)C[C@H](C)O1 [Compound 198] |
| 10 to 100 | C[C@@H]1CN(C/C=C/C(=O)N2CCN(c3nc(OCC45CCCN4CCC5)nc4c3CCN(c3cccc5cccc(Cl)c35)C4)C[C@@H]2CC#N)C[C@@H](C)O1 [Compound 197] |
| < 10 | N#CC[C@H]1CN(c2nc(OC[C@@]34CCCN3C[C@H](F)C4)nc3c(F)c(-c4cccc(Cl)c4C(F)(F)F)ncc23)CCN1C(=O)/C=C/CN1CCOCC1 [Compound 296] |
| > 500 | Cc1nccc(/C=C/C(=O)N2CCN(c3nc(OC[C@@]45CCCN4C[C@H](F)C5)nc4c(F)c(-c5n[nH]c6cccc(Cl)c56)ncc34)C[C@@H]2CC#N)n1 [Compound 230] |
| 100 to 500 | Cc1cc(/C=C/C(=O)N2CCN(c3nc(OC[C@@]45CCCN4C[C@H](F)C5)nc4c(F)c(-c5cccc6ccccc56)ncc34)C[C@@H]2CC#N)nc(C)n1 [Compound 209] |
| 10 to 100 | N#CC[C@H]1CN(c2nc(OC[C@@]34CCCN3C[C@H](F)C4)nc3c(F)c(-c4cccc5ccc(F)c(F)c45)ncc23)CCN1C(=O)/C=C/CN1CCn2nccc2C1 [Compound 268] |
| < 10 | N#CC[C@H]1CN(c2nc(OCC34CCCN3CCC4)nc3c(F)c(-c4cccc5ccc(F)c(Cl)c45)ncc23)CCN1C(=O)/C=C/CN1CCOCC1 [Compound 179] |
| 100 to 500 | Cc1nccc(/C=C/C(=O)N2CCN(c3nc(OCC45CCCN4CCC5)nc4c3CCN(c3cccc5ccc(F)c(Cl)c35)C4)C[C@@H]2CC#N)n1 [Compound 206] |
| 10 to 100 | N#CC[C@H]1CN(c2nc(OC[C@@]34CCCN3C[C@H](F)C4)nc3c(F)c(-c4cccc5cccc(Cl)c45)ncc23)CCN1C(=O)/C=C/CN1C[C@H]2COC[C@H]21 [Compound 291] |
| 10 to 100 | CCN1CC[C@@H]1/C=C/C(=O)N1CCN(c2nc(OC[C@@]34CCCN3C[C@H](F)C4)nc3c(F)c(-c4cccc(Cl)c4C4CC4)ncc23)C[C@@H]1CC#N [Compound 312] |
| < 10 | CC(=O)N1CCN(C/C=C/C(=O)N2CCN(c3nc(OC[C@@]45CCCN4C[C@H](F)C5)nc4c(F)c(-c5cccc6cccc(Cl)c56)ncc34)C[C@@H]2CC#N)CC1 [Compound 324] |
| 10 to 100 | N#CC[C@H]1CN(c2nc(OC[C@@]34CCCN3C[C@H](F)C4)nc3c(F)c(-c4cccc5cccc(Cl)c45)ncc23)CCN1C(=O)/C=C/CN1CCn2ncnc2C1 [Compound 267] |
| < 10 | N#CC[C@H]1CN(c2nc(OCC34CCCN3CCC4)nc3c(F)c(-c4cccc5cccc(Cl)c45)ncc23)CCN1C(=O)/C=C/CN1C[C@@H]2C[C@H]1CO2 [Compound 184] |
| 100 to 500 | N#CC[C@H]1CN(c2nc(OC[C@@]34CCCN3C[C@H](F)C4)nc3c(F)c(-c4cccc5ccc(F)c(F)c45)ncc23)CCN1C(=O)/C=C/CN1CCn2ncnc2C1 [Compound 266] |
| 10 to 100 | N#CC[C@H]1CN(c2nc(OC[C@@]34CCCN3C[C@H](F)C4)nc3c(F)c(-c4cccc5ccc(F)c(F)c45)ncc23)CCN1C(=O)/C=C/CN1CCn2ccnc2C1 [Compound 263] |
| 100 to 500 | Cc1cc(/C=C/C(=O)N2CCN(c3nc(OC[C@@]45CCCN4C[C@H](F)C5)nc4c(F)c(-c5cccc6c(C)c(F)ccc56)ncc34)C[C@@H]2CC#N)nc(C)n1 [Compound 250] |
| < 10 | N#CC[C@H]1CN(c2nc(OCC34CCCN3CCC4)nc3c(F)c(-c4cccc5cccc(Cl)c45)ncc23)CCN1C(=O)/C=C/CN1C[C@H]2C[C@@H]1CO2 [Compound 185] |
| 100 to 500 | CC(C)N1CC[C@@H]1/C=C/C(=O)N1CCN(c2nc(OC[C@@]34CCCN3C[C@H](F)C4)nc3c(F)c(-c4cccc(Cl)c4C4CC4)ncc23)C[C@@H]1CC#N [Compound 313] |
| < 10 | N#CC[C@H]1CN(c2nc(OC[C@@]34CCCN3C[C@H](F)C4)nc3c(F)c(-c4cccc5cccc(Cl)c45)ncc23)CCN1C(=O)/C=C/CN1CC[C@@H](OC(F)F)C1 [Compound 304] |
| 100 to 500 | Cc1c(F)ccc2c(-c3ncc4c(N5CCN(C(=O)/C=C/CN6CCOCC6)[C@@H](CC#N)C5)nc(OC[C@@]56CCCN5C[C@H](F)C6)nc4c3F)cccc12 [Compound 252] |
